# Laboratory results published in patent publication US10767149B2, “Microfluidic device for three dimensional and compartmentalized coculture of neuronal and muscle cells, with functional force readout” (priority 2016, dated 2020).
# “Also recorded” adds a separate entry of the source.
# What was measured:
# Type in all cases: cell-based, mouse
# [1] = tested on: motor neurons in neurospheres innervating C2C12-derived muscle bundle; test: Glutamate stimulation of neurospheres in three-dimensional microfluidic neuron-muscle coculture
# Protocol: . After reassembling an open-reservoir variant of the microfluidic device onto the muscle strip, the medium contained in all channels was flushed with a collagen-Matrigel mix. Neurospheres ˜300 to 400 μm in diameter were manually selected, resuspended with the same collagen-Matrigel mixture as above, and individually pipetted into the leftmost channel (FIG. 9d and FIG. 8) before the devices were placed in the incubator for matrix gelation, after which medium was supplied to both open reservoirs. The diameter of the neurospheres being greater than the inter-post distance ensured their restriction to the assign channel, resulting in a physical separation of ˜1 mm between the neurons and the muscles.
# The first muscle contraction, indicative of the presence of functional NMJs, was recorded 80 s after glutamate administration and the twitching frequency rose during the subsequent 120 s to reach a steady value of ˜1.25 Hz (FIG. 10a). The delay in contraction and increase of the twitching frequency is likely due to the diffusion of the glutamate to the motor neurons embedded in the ECM since this lag is absent in adherent 2D cultures (T. Wada, M. Honda, I. Minami, N. Tooi, Y. Amagai, N. Nakatsuji, K. Aiba, PLoS One 2009, 4, DOI 10.1371/journal.pone.0006722) or three-dimensional constructs in suspension (Y. Morimoto, M. Kato-Negishi, H. Onoe, S. Takeuchi, Biomaterials 2013, 34, 9413).
# All three-dimensional cell cultures in the microfluidic devices were carried out in a collagen:Matrigel hydrogel in a 4:1 ratio. Rat tail type I collagen (Corning) was mixed on ice with 10×PBS with phenol red (serving as pH indicator), 0.5 N NaOH and water for cell culture in order to yield a collagen concentration of 2 mg·ml^−1 at a pH of 7.4. Matrigel without growth factors (BD science) was thoroughly mixed to the collagen at 20% of the final gel mixture volume. The gel was then used within a few minutes following its preparation in order to avoid pre-polymerization.
# C2C12 were trypsinized, counted and centrifuged for 5 min at 200 rcf. […]
# [2] = tested on: NMJs between ChR2^H134R-HBG3-MN and C2C12-derived myotubes
# [3] = tested on: NMJs between ChR2^H134R-HBG3-MN neurospheres and C2C12-derived muscle bundle
Compound,steady muscle twitching frequency ([1]; 400 μM in medium) [Hz],"time to first muscle contraction after administration ([1]; 400 μM in medium, leftmost channel) [s]","time over which twitching frequency rose to steady value ([1]; 400 μM, after first contraction) [s]",contractility of the myocytes after application (spontaneous twitches) [2],effect on light-induced muscle contraction [2],myocytes showing inhibition of light-induced muscle contraction [2],effect on light-driven muscle contraction (force F) [3]
N[C@@H](CCC(=O)O)C(=O)O [Glutamate],~1.25,80,120,,,,
α-bungarotoxin,,,,still contractile; also recorded: did not alter the contractility of the myocytes,inhibited,17/17,inhibited the contractions; also recorded: inhibited muscle contraction
